Source: ChEMBL document CHEMBL5727600, “1,4-dicarbonyl-piperidyl derivatives” (2020)

Key:
[1] = target: T1, Poly [ADP-ribose] polymerase tankyrase-1 (Homo sapiens, UniProt O95271); test: Biochemical Activity Assay: TNKS 1 and 2: The activity ELISA is performed in 384 well Glutathione coated microtiter plates (Express capture Glutathione coated plate, Biocat, Heidelberg, Germany). The plates are pre-equilibrated with PBS. Then the plates are incubated with 50 μl 20 ng/well GST-tagged Tnks-1 (1023-1327 aa, prepared in-house), respectively GST-tagged Tnks-2 (873-1166 aa, prepared in-house) in assay buffer (50 mM HEPES, 4 mM Mg-chloride, 0.05% Pluronic F-68, 2 mM DTT, pH 7.7) overnight at 4° C. The plates are washed 3 times with PBS-Tween-20. The wells are blocked by incubation at room temperature for 20 minutes with 50 μl blocking buffer (PBS, 0.05% Tween-20, 0.5% BSA). Afterwards the plates are washed 3 times with PBS-Tween-20. The enzymatic reaction is performed in 50 μl reaction solution (50 mM HEPES, 4 mM Mg-chloride, 0.05% Pluronic F-68, 1.4 mM DTT, 0.5% DMSO, pH 7.7) with 10 μM bio-NAD (Biolog, Life science Inst., Bremen, Germany) as co-substrate in the absence or presence of the test compound (10 dilution concentrations) for 1 hour at 30° C. The reaction is stopped by 3 times washing with PBS-Tween-20. For the detection 50 μl of 20 ng/μl Streptavidin, HRP conjugate (MoBiTec, Göttingen, Germany) in PBS/0.05% Tween-20/0.01% BSA are added and the plates are incubated for 30 minutes at room temperature. […]
T1 sequence (O95271 whole entry): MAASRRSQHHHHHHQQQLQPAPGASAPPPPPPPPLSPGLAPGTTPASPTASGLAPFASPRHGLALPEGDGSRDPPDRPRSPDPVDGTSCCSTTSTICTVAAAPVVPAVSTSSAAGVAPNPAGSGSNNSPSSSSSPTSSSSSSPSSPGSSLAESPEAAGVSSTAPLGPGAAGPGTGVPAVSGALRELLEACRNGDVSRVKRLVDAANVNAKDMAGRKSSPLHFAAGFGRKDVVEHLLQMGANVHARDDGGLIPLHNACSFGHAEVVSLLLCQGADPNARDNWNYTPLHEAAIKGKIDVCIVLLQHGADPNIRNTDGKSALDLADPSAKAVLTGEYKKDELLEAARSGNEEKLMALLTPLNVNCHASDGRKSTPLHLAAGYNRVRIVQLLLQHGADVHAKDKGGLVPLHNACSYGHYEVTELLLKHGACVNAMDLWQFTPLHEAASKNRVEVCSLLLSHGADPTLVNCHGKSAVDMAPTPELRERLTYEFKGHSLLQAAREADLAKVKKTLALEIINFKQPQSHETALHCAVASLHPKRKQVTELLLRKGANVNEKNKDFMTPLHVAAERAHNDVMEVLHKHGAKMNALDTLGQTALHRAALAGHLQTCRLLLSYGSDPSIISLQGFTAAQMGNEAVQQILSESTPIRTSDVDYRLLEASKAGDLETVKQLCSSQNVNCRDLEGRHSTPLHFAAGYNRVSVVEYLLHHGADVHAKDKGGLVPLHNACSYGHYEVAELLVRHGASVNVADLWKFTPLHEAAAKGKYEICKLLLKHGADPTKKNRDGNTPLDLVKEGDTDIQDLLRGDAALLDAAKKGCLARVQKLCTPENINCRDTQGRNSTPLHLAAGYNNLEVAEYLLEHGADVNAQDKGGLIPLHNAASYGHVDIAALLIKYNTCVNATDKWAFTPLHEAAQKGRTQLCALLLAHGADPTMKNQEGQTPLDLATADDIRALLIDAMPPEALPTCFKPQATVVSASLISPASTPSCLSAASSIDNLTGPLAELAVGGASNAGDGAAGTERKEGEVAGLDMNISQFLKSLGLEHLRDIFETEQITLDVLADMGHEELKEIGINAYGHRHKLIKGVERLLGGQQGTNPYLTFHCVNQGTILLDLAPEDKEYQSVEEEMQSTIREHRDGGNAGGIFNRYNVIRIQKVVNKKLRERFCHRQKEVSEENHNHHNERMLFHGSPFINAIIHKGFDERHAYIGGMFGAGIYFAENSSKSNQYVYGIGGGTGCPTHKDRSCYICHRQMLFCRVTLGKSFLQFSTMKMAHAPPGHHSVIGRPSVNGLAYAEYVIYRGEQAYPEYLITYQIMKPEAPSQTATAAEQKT

[2] = target: T2, Poly [ADP-ribose] polymerase tankyrase-2 (Homo sapiens, UniProt Q9H2K2); test: Biochemical Activity Assay: TNKS 1 and 2: The activity ELISA is performed in 384 well Glutathione coated microtiter plates (Express capture Glutathione coated plate, Biocat, Heidelberg, Germany). The plates are pre-equilibrated with PBS. Then the plates are incubated with 50 μl 20 ng/well GST-tagged Tnks-1 (1023-1327 aa, prepared in-house), respectively GST-tagged Tnks-2 (873-1166 aa, prepared …
T2 sequence (Q9H2K2 whole entry): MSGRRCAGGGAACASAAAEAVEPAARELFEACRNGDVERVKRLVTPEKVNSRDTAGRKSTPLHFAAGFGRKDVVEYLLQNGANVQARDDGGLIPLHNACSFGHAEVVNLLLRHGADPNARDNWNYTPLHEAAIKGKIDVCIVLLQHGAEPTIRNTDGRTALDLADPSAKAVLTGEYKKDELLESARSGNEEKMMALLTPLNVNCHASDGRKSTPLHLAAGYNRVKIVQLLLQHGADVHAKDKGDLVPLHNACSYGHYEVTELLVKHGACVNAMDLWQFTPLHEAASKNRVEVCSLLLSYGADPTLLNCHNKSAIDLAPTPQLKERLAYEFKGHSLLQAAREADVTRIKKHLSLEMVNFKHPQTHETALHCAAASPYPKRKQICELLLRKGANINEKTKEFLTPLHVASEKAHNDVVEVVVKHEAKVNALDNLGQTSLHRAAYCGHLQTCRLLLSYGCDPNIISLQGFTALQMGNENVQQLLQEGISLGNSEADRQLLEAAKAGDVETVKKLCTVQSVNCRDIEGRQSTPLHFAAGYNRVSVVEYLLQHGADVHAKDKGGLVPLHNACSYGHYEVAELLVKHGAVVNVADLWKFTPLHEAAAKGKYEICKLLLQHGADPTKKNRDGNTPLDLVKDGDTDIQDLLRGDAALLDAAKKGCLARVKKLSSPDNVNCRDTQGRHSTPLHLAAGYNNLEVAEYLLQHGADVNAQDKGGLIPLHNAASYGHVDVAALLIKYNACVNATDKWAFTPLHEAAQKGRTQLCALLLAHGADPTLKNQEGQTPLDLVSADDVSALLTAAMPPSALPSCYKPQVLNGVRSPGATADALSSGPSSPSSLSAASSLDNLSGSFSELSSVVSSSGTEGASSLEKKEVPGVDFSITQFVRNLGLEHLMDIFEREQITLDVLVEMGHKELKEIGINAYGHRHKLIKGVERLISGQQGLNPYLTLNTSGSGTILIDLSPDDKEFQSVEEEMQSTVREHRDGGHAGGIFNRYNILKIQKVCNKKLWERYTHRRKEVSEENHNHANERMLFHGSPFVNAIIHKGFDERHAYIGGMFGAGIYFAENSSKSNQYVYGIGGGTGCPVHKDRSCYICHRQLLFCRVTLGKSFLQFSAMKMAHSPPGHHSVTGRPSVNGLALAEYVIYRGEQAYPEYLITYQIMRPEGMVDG

`Cc1cc(F)cc2c(=O)[nH]c(C[C@H](C)CC(=O)N3CCC(C(=O)c4cnn(C)c4)CC3)nc12` gave an IC50 [1] of 0.31 nM and an IC50 [2] of 0.2 nM.

For `Cc1cc(F)cc2c(=O)[nH]c(C[C@@H](C)CC(=O)N3CCC(C(=O)c4cnn(C)c4)CC3)nc12`, the IC50 [1] was 0.66 nM and the IC50 [2] was 0.59 nM.
